Data set [1] can be described thus: Solubility in Captisol solution. Type of data set: physicochemical. As to conditions: 20% Captisol solution, aqueous with cosolvent or surfactant or cyclodextrin, 25° C., read-out: solubility limit. How it is done: (20% Captisol®). Formulation is carried out under aseptic conditions. Sterility is achieved by terminal filtration through a 0.22 micron filter.
The test system of data set [2] is MDA-MB-468. As to the kind of experiment: MTT proliferation assay, MDA-MB-468. It is filed as cell-based, human. The procedure, abridged:
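MDA-MB-468 breast adenocarcinoma cells were grown in DMEM:F12 with added L-glutamine, then exposed to compound for 5 days (120 h). MTT was added for 5 h at 37 °C. IC50 came from semi-log plots of % control proliferation against log dose.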
For orientation: Tetrazolium assays rely on reduction of a dye to a coloured formazan, in cell work by metabolically active cells.

Data set [3] concerns R-182. The experiment in a line: MTT proliferation assay, R-182. As to conditions: Ovarian, R-182, 120 h of exposure. It is filed as cell-based. From the text:
Tissue culture. The multidrug resistant primary epithelial ovarian cancer cell line R-182 TARA was a gift from Dr. Gil Mor (Yale University, New Haven, CT, USA). This cell line was derived by explant from ovarian tumors and cultured as previously described. All other cell lines were purchased from American Type Culture Collection (ATCC, Manassas, VA, USA) with the exception of MKN1, HuH-7, JHH-1, which were purchased from the Japanese Collection of Research Bioresources (JCRB, Osaka, Japan), and OE19 which was purchased from the European Collection of Cell Cultures (ECACC, Salisbury, UK).
(§1) Proliferation Assays. IC50 values were determined for each cell line. Cells were seeded in 96-well plates at an appropriate cell density as determined from growth kinetics analysis and cultured for 5 days in the absence and presence of the test compounds. Cell proliferation was assessed after the addition of 20 μl of 3-4,5 dimethylthiazol-2,5-diphenyl tetrazolium bromide (MTT, 5 mg/ml in PBS, Sigma) for 5 hrs at 37° C. according to manufacturer's instructions. IC50 values were calculated from semi-log plots of % of control proliferation on the y-axis against log dose on the x-axis.
(§2) Anti-proliferative Activity of Isoflavonoid Derivatives. IC50 values were determined for each cell line after 120 h of exposure.

For data set [4], the system named is COLO205. As to the kind of experiment: MTT proliferation assay, COLO205. Type of data set: cell-based, human. The conditions noted are these: Homo sapiens, COLO 205; CRC, COLO205, 120 h of exposure. How it is done: The human non-small cell lung adenocarcinoma lines NCI-H1299 (CRL-5803), NCI-H460 (HTB-177), NCI-H358 (CRL-5807), NCI-H838 (CRL-5844), the human colorectal adenocarcinoma lines COLO 205 (CCL-222), HCT-15 (CCL-225) and the human gastric cancer cell line NCI-N87 (CRL-5822) were cultured in RPMI 1640 medium containing 2 g/L sodium bicarbonate (Hyclone/Invitrogen) supplemented with 2 mM L-glutamine (Gibco) 1 mM sodium pyruvate (Sigma), 10 mM HEPES (Sigma) and 4500 mg/L glucose (Sigma). The human non-small cell lung adenocarcinoma line NCI-H2126 (CCL-256) was cultured in DMEM:F12(1:1) (Hyclone/Invitrogen) containing 2.5 mM L-glutamine 2.4 g/L sodium bicarbonate supplemented with 5% fetal bovine serum (FBS), an additional 2 mM L-glutamine, 15 mM HEPES, 0.005 mg/ml insulin (Sigma), 0.01 mg/ml transferrin (Sigma), 30 nM sodium selenite (Sigma), 10 nM hydrocortisone (Sigma) and 10 nM beta-estradiol (Sigma). The human colorectal adenocarcinoma line HT-29 (HTB-38) and the human gastric cancer cell lines OE-19 (#96071721) and MKN1 (JCRB0252) were cultured in RPMI 1640 media supplemented with 2 mM L-glutamine.
as §1, §2

The subject of data set [5] is A2058. The experiment in a line: MTT proliferation assay, A2058. Type of data set: cell-based. In a few lines: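 120 h compound exposure; MTT read-out (5 h, 37° C); IC50 from % of control proliferation vs log dose, semi-log plot. Seeding density per line from growth kinetics.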
The test system of data set [6] is LNCaP. The experiment in a line: MTT proliferation assay, LNCaP. Type of data set: cell-based. As to conditions: Homo sapiens, Prostate, 120 h of exposure. How it is done: as §1, §2
The test system of data set [7] is CALU3. The experiment in a line: MTT proliferation assay, CALU3. It is filed as cell-based. The conditions noted are these: Homo sapiens, Calu-3; NSCLC, CALU3, 120 h of exposure. The protocol:
as §1, §2

≈ marks a conversion by molar mass, not a printed value.

Experimental findings from patent publication US12329739B2, “Isoflavonoid compounds and methods for the treatment of cancer” (Aardvark Therapeutics, Inc., priority 2010, dated 2025) are described below.

Usually solubility stands for the concentration that dissolves in the medium under given conditions. As a reminder, the IC50 is the midpoint of a concentration-inhibition curve.

Regarding `Oc1ccc([C@H]2c3ccc(O)cc3OC[C@H]2c2ccc(O)cc2)cc1` [Compound 31, d-cis-3-(4-hydroxyphenyl)-4-(4-hydroxyphenyl)chroman-7-ol], in data set [1], the solubility is 27.9 mg/mL (≈ 83.4 mM). Also, the IC50 was no more than 150 nM in data set [2] (Homo sapiens, MDA-MB-468, 120 h, Breast, MDA-MB-468, 120 h of exposure); no more than 150 nM in data set [2] (Table 2, Breast, MDA-MB-468, 120 hrs of exposure); no more than 150 nM in data set [3]; 1600 to 10000 nM in data set [4]; no more than 150 nM in data set [5] (Homo sapiens, A2058, 120 h, Melanoma, A2058, 120 h of exposure); no more than 150 nM in data set [5] (Table 2, Melanoma, A2058, 120 hrs of exposure). Moreover, the IC50 in data set [6] and in data set [7] was 150 to 500 nM in each case.
